Data on six compounds can be found in patent US8455033B2, “Taste potentiator compositions and edible confectionery and chewing gum products containing same” (Kraft Foods Global Brands LLC, priority 2005, dated 2013).

The test system of assay [1] is expert panel members. Description: Sucrose Equivalent Value (SEV): expert panel matches the test solution to stock sucrose solutions. The format is in vivo. Particulars: for effect on sweetness of the sucrose solution (dose response curve): 0 to 1000 ppm in pH 3.2 buffered 5% sucrose; for effect on sweetness (SEV) of sucrose solutions: 500 ppm in pH 3.2 buffered 0%, 3%, 5%, 7% and 9% sucrose; for SEV (%): 500 ppm of a single potentiator in pH 3.2 buffered 5% sucrose. How it is done: One method of measuring the perceived sweetness of a solution is to match it with a stock sucrose solution of known concentration. In the present experiments, the compound of interest is added at a predetermined concentration to a pH 3.2 buffered solution containing 5% sucrose. A number of expert panel members then taste the solution and compare it to a battery of stock sucrose solutions ranging from 3% to 15% at increments of 1%. Each panel member decides which sucrose solution is equisweet with the solution containing the compound of interest. The mean value is then reported as the SEV. Results are reported to 1 decimal place.
In accordance with this methodology, 3-HB was added to a pH 3.2 buffered solution containing 5% sucrose to produce solutions containing from 0 to 1000 ppm 3-HB in 100 ppm increments. […] From FIG. 1 it is apparent that as the dosage of 3-HB increases so does the sweetness of the resultant solution. However the effect is non-linear with each incremental addition having a diminishing effect. The maximum sweetness attainable would appear to be about 7.9% SEV (based on a 5% sucrose solution).
The same methodology as described in Example 7 was repeated with 2,4-DHB in place of 3-HB, to produce the dose response curve for 2,4-DHB (FIG. 2). […] The maximum attainable sweetness would appear to be about 6.7% SEV (based on a 5% sucrose solution).
500 ppm of a sweetener potentiator was added to a pH 3.2 buffered solution containing 5% sucrose and the SEV of the resultant solution determined. […]
pH 3.2 buffered solutions were prepared containing 0%, 3%, 5%, 7% and 9% sucrose. 500 ppm of 2,4-DHB acid, 500 ppm of the sodium salt of 2,4-DHB and 500 ppm of the potassium salt of 2,4-DHB were added individually to each of the sucrose solutions. The SEV for each of the solutions was then determined.
500 ppm of 3-aminobenzoic acid and 500 ppm of 4-aminobenzoic acid were individually added to separate pH 3.2 buffered solutions containing 5% sucrose and the SEVs of the resultant solutions were determined. The SEV of 3-aminobenzoic acid was about 7%, i.e., increased the sweetness intensity of 5% sucrose to about 7%. The SEV of 4-aminobenzoic acid was about 5.5-6%, i.e., increased the sweetness intensity of 5% sucrose to about 5.5-6%.

For assay [2] the following is noted: 0.2% added to a 5% sucrose solution; Canadian Patent No. 1208966; cited from earlier work.

Consider `O=C(O)c1ccc(O)cc1O` [2,4-DHB, 2,4-dihydroxybenzoic acid], for which, in assay [1], the “effect on sweetness of the sucrose solution (dose response curve)” value is on record as “enhances the sweetness of the sucrose solution” and the “effect on sweetness (SEV) of sucrose solutions” value (“effect on sweetness (SEV)” for short) was “enhances the sweetness of the sucrose solution in every case”. Further, the “effect on sweetness of sucrose solution” value in assay [2] was “increase in sweetness”. Turning to `O=C(O)c1ccc(O)c(O)c1` [3,4-DHB, 3,4-dihydroxybenzoic acid], the “SEV (%)” value in assay [1] came out at 6.4%. With `O=C([O-])c1ccc(O)cc1O.[Na+]` [sodium salt of 2,4-DHB], in assay [1], the “effect on sweetness (SEV)” value is “enhances the sweetness of the sucrose solution in every case”. Regarding `O=C(O)c1cc(O)c(O)c(O)c1` [3,4,5-THB, 3,4,5-tryhydroxybenzoic acid], the “SEV (%)” value in assay [1] is on record as 5.1%. For the compound `O=C(O)c1cccc(O)c1` [3-HB, 3-hydroxybenzoic acid], the “effect on sweetness of the sucrose solution (dose response curve)” value in assay [1] is on record as “enhances the sweetness of the sucrose solution”.

With `O=C([O-])c1ccc(O)cc1O.[K+]` [potassium salt of 2,4-DHB], the “effect on sweetness (SEV)” value in assay [1] is reported as “enhances the sweetness of the sucrose solution in every case”.
